Laboratory results: patent US20110269777A1, “METHODS AND COMPOSITIONS FOR TREATING SCHIZOPHRENIA USING ANTIPSYCHOTIC COMBINATION THERAPY” (Medivation Neurology, Inc., priority 2007, published 2011)
Where a name gives a salt, the structure may show the parent alone.

How the values were obtained:
[1] = test system: NMDA-induced currents in cultured rat hippocampus neurons (NMDA receptors); test: NMDA-induced current blocking, patch clamp, whole cell configuration; format: cell-based; settings: for Effect on the blocking effect of MK-801 on NMDA-induced currents: preliminary application before MK-801
Protocol: Experiments were carried out by the patch clamp method on freshly isolated neurons of a rat brain cortex or on cultured rat hippocampus neurons. Neurons for cultivation were obtained from the hippocampus of neonatal rats (1-2 days) by the method of trypsinization followed by pipetting. Cells suspended in culture medium were placed in 3 mL quantities into the wells of a 6-well planchette (Nunc) or into Petri dishes, in which glasses coated with poly-L-lysine had first been placed. The cell concentration as a rule was […]. The culture medium consisted of Eagle's minimum medium and a DME/F12 medium (1:1) supplemented with 10% calf serum, 2 mM glutamine, 50 μg/mL gentamycin, 15 mM glucose and 20 mM KCl, with the pH brought to between 7.0 and 7.4 using NaHCO3. Planchettes containing cultures were placed in a CO2— incubator at 37° C. and 100% humidity. Cytosine arabinoside (10-20 μL) was added on the second to third day of cultivation. After 6-7 days of cultivation 1 mg/mL glucose was added to the medium, or the medium was exchanged, depending on the following experiment. The cultured hippocampus neurons were placed in a 0.4 mL working chamber. The working solution had the following composition: 150.0 mM NaCl, 5.0 mM KCl, 2.6 mM CaCl2, 2.0 mM MgSO4×7H2O, 10 mM HEPES, and 15.0 mM Glucose, at pH 7.36.
Transmembrane currents produced by application of NMDA were registered by the patch clamp electrophysiological method in the whole cell configuration. Application of substances was done by the method of rapid superfusion. Currents were registered with the aid of borosilicate microelectrodes (resistance […]) filled with the following composition: 100.0 mM KCl, 11.0 mM EGTA, 1.0 mM CaCl2, 1.0 mM MgCl2, 10.0 mM HEPES, and 5.0 mM ATP, at pH 7.2. An EPC-9 instrument (HEKA, Germany) was used for registration. Currents were recorded on the hard disk of a Pentium-IV PC using the pulse program, which is also purchased from HEKA. The results were analyzed with the aid of the Pulsefit program (HEKA).

[2] = test system: patients with schizophrenia, paranoid type
[3] = test system: patients with schizophrenia, paranoid type; test: Double-blind placebo-controlled clinical study, neurocognitive assessment tests; format: in vivo, human
Protocol: (§1) A double-blind, placebo-controlled clinical study was conducted to evaluate the effect of a combination therapy of risperidone (3-[2-[4-(6-fluoro-1,2-benzoxazol-3-yl)piperidin-1-yl]ethyl]-2-methyl-6,7,8,9-tetrahydropyrido[2,1-b]pyrimidin-4-one) plus dimebon (2,8-dimethyl-5-(2-(6-methyl-3-pyridyl)ethyl)-2,3,4,5-tetrahydro-1H-pyrido[4,3-b]indole dihydrochloride) for treatment of chronic schizophrenia compared to risperidone treatment alone. The treatment trial was designed as randomized placebo-controlled, double-blind study of 60 patients meeting diagnostic criteria for schizophrenia, paranoid type, and episodic course (DSM IV-295.30).
(§2) The study included 60 patients with a diagnosis of continuous paranoid and episodic-progressive schizophrenia with a current condition of drug remission or development of drug remission, without regard to the syndrome determining the current mental status. […] According to DSM-IV, these patients met criteria 295.30, schizophrenia, paranoid type, […]. Patients were selected to participate in the study according to the following criteria: (1) inclusion criteria: male patients, 18 year old or older, schizophrenia, paranoid type, and episodic course in remission or partial remission and responders or partial responders to risperidone; and (2) exclusion criteria: excitement, impulsiveness or aggressive behavior (more than moderate), non-responders to antipsychotic treatment including risperidone, having mental disorders other than (or in addition to) schizophrenia, necessity of other treatment and severe acute somatic diseases or decompensated chronic somatic diseases.
(§3) In the first stage of the study (2 weeks), patients who provide an informed consent for participation in the study and who met the inclusion/exclusion criteria were switched to monotherapy with risperidone (dose adjustment of risperidone in range from 2 mg to 6 mg per day), and the clinical stability of the patients was evaluated weekly over two weeks. […] Again, clinical stability of the study participants was evaluated weekly for four weeks. In the third stage (8 weeks), after 4 weeks of monotherapy with risperidone, patients were divided into two groups. Group 1 received dimebon, (20 mg three times daily, n=23) in addition to risperidone therapy. Group 2 received a placebo (n=24) in addition to risperidone therapy. Again, clinical stability of the study participants was evaluated weekly for eight weeks. In the fourth stage (follow-up period), 6 months after completion of therapy within the framework of the protocol, the stability of the characteristics achieved in the course of the study were evaluated. In the fourth stage, clinical stability of the study participants was evaluated monthly for six months.
(§4) The study was conducted as follows. The patients were evaluated clinically and by psychopathological (descriptive) methods during every visit. The patients were evaluated according to the psychometric method at the end of the first period, at the end of the second period, after 4 weeks of the third period and at the end of the third period using the following criteria (A) Efficacy assessment scales such as (1) Positive and Negative Syndrome Scale (PANSS scale; Kay, S. R., Fiszbein, A., and Opler, L. A., Schizophrenia Bulletin 13(2):261-76 (1987)); (2) Clinical Global Impression-Severity (CGI-S) and Clinical Global Impression-Improvement (CGI-I); (3) Calgary depression rating scale (Addington, D., Addington, J., and Maticka-Tyndale E., British J. Psych. Suppl. 22:39-44 (1993)); and (4) Negative Symptoms Assessment-16 (NSA-16) (Alphs, L., Summerfelt, A., Lann, H., and Muller, R. J., Psychopharm. Bull. 25:159-163 (1989)); and (B) Safety scales such as (1) the Barnes Akathisia Rating Scale (BARS) (Barnes, T. R., British J. Psych. 154:672-676 (1989)); and (2) the Simpson-Angus Rating Scale (SARS) (Simpson, G. N. and Angus, J. W. S., Acta Psych. Scand. 212(suppl. 44):11-19 (1970)). […]

[4] = test system: patients with schizophrenia, paranoid type; test: Double-blind placebo-controlled clinical study, efficacy assessment scales (PANSS, CGI, Calgary, NSA-16); format: in vivo, human
Protocol: as §1, §2, §3, §4

[5] = end (8 weeks dimebon + risperidone)
[6] = start (before adding dimebon to risperidone)
[7] = end (8 weeks dimebon 20 mg three times daily + risperidone)

SMILES: N[C@H](CCCP(=O)(O)O)C(=O)O [D-AP5, D-2-amino-5-phosphonovaleric acid, reference compound]
- Effect on the blocking effect of MK-801 on NMDA-induced currents [1]: did not decrease

SMILES: Cc1ccc2c(c1)c1c(n2CCc2ccc(C)nc2)CCN(C)C1 [Dimebon, 2,8-dimethyl-5-[2-(6-methylpyridyl-3)ethyl]-2,3,4,5-tetrahydro-1H-pyrido[4,3-b]indole dihydrochloride]
- safety issues ([2]; dimebon 20 mg three times daily + risperidone, 8 weeks): no safety issues
- BARS and SARS safety scales, difference between study groups ([2]; dimebon group vs placebo group): no differences
- Blockade of NMDA-induced currents (%) ([1]; at 10 μM, cultured rat hippocampus neurons): By 50-70% at 10 μM
- IC50 ([1]; average, read-out: IC50, blocking of currents caused by application of NMDA): 7.7 ± 1.9 µM
- Effect on the blocking effect of MK-801 on NMDA-induced currents [1]: capable of reducing
- verbal associative memory, psychomotor speed, visual-spatial memory and number aspects of executive functioning ([3]; dimebon group, start to end of 8 weeks on risperidone background): significant improvement
- Benton test: sum error [3, 5]: 6.5 ± 4.4
- Benton test: sum reconst [3, 5]: 6 ± 2.21
- Bourdohn test: attention concentration [3, 5]: 0.986 ± 0.013
- Bourdohn test: attention productivity [3, 5]: 497 ± 170
- Bourdohn test: attention stability [3, 5]: 0.009 ± 0.006
- CAT: correct answer account [3, 5]: 37 ± 8.2
- CAT: reaction time [3, 5]: 630.17 ± 195.55
- Schulte tables: sum time [3, 5]: 166 ± 64
- Text 1 Reconstruction 1. quantity of elements [3, 5]: 7 ± 2.6
- Text 2 Reconstruction 1 quantity of elements [3, 5]: 9 ± 3.0
- Tower of London - correct score [3, 5]: 3.26
- Tower of London - execution time [3, 5]: 234 ± 115
- Tower of London - sum total time > 60 sec [3, 5]: 0 ± 1.5
- Tower of London -move score [3, 5]: 34 ± 19
- Wechsler memory scale, subtest V: series A [3, 5]: 6 ± 0.9
- Wechsler memory scale, subtest V: sum A and B [3, 5]: 9.5 ± 2.7
- Wechsler memory scale, subtest V: sum A and B, (T-scores) [3, 5]: 8 ± 2.3
- Wechsler memory scale, subtest VII: sum comlex [3, 5]: 4.5 ± 3.34
- Wechsler memory scale, subtest VII: sum simple [3, 5]: 17 ± 2.9
- Wechsler memory scale, subtestV: series B [3, 5]: 4 ± 0.9
- Wechsler test, subtest VII: Symbol coding [3, 5]: 6 ± 1.4
- Wisconsin CS test - conceptual level responses, T score [3, 5]: 44 ± 6.7
- Wisconsin CS test - nonperseverative errors, T score [3, 5]: 43 ± 9.6
- Wisconsin CS test - perseverative responses, T score [3, 5]: 45 ± 5.53
- Wisconsin CS test - total error - T score [3, 5]: 43 ± 8.1
- Wisconsin CS test perseverative errors, T score [3, 5]: 44 ± 5.6
- Wisconsin CS test: categories completed [3, 5]: 5 ± 1.9
- Wisconsin CS test: total correct responses [3, 5]: 78 ± 14
- Benton test: sum error [3, 6]: 8 ± 3.8
- Benton test: sum reconst [3, 6]: 5 ± 1.7
- Bourdohn test: attention concentration [3, 6]: 0.975 ± 0.03
- Bourdohn test: attention productivity [3, 6]: 399 ± 123
- Bourdohn test: attention stability [3, 6]: 0.01 ± 0.01
- CAT: correct answer account [3, 6]: 35 ± 8.5
- CAT: reaction time [3, 6]: 606.74±
- Schulte tables: sum time [3, 6]: 160 ± 105
- Text 1 Reconstruction 1. quantity of elements [3, 6]: 5 ± 2.3
- Text 2 Reconstruction 1 quantity of elements [3, 6]: 7 ± 2.7
- Tower of London - correct score [3, 6]: 2 ± 1.1
- Tower of London - execution time [3, 6]: 298 ± 227
- Tower of London - sum total time > 60 sec [3, 6]: 1.5 ± 3
- Tower of London -move score [3, 6]: 46 ± 25
- Wechsler memory scale, subtest V: series A [3, 6]: 6 ± 1
- Wechsler memory scale, subtest V: sum A and B [3, 6]: 10 ± 1.7
- Wechsler memory scale, subtest V: sum A and B, (T-scores) [3, 6]: 9 ± 2.3
- Wechsler memory scale, subtest VII: sum comlex [3, 6]: 3 ± 2.7
- Wechsler memory scale, subtest VII: sum simple [3, 6]: 14 ± 4
- Wechsler memory scale, subtestV: series B [3, 6]: 4 ± 1.2
- Wechsler test, subtest VII: Symbol coding [3, 6]: 5 ± 1.8
- Wisconsin CS test - conceptual level responses, T score [3, 6]: 43 ± 5.9
- Wisconsin CS test - nonperseverative errors, T score [3, 6]: 41 ± 7.9
- Wisconsin CS test - perseverative responses, T score [3, 6]: 43 ± 8.38
- Wisconsin CS test - total error - T score [3, 6]: 43 ± 6.8
- Wisconsin CS test perseverative errors, T score [3, 6]: 43 ± 8.21
- Wisconsin CS test: categories completed [3, 6]: 4 ± 1.7
- Wisconsin CS test: total correct responses [3, 6]: 79 ± 16
- total PANSS score relative to placebo ([4]; adjunctive dimebon on background risperidone therapy): significant reduction
- % improvement [4, 7]: 8.14 ± 49.4%
- CGI I [4, 7]: 2.7 ± 1.0
- CGI-S [4, 7]: 3.9 ± 1.2
- Calgary scale of depression [4, 7]: 8.1 ± 9.97
- NSA-16 [4, 7]: 48.5 ± 22.7
- PANSS general psychopathol [4, 7]: 31.4 ± 11.1
- PANSS negative [4, 7]: 18.48 ± 7.01
- PANSS positive [4, 7]: 12.0 ± 5.9
- PANSS total [4, 7]: 61.9 ± 22.2
- CGI-S [4, 6]: 4.3 ± 1
- Calgary scale of depression [4, 6]: 11.6 ± 11.6
- NSA-16 [4, 6]: 64.65 ± 22.8
- PANSS general psychopathol [4, 6]: 39.1 ± 8.1
- PANSS negative [4, 6]: 22.5 ± 5.15
- PANSS positive [4, 6]: 16.9 ± 4.6
- PANSS total [4, 6]: 78.5 ± 14.1
